# According to patent US20050228041A1, “Protective and therapeutic uses for tocotrienols” (priority 2003, published 2005):
# Experiments:
# [1] = system: primary rat immature cortical neurons; test: Neurotoxin-induced loss of viability of primary immature cortical neurons (LDH leakage); type: cell-based; conditions: glutamate 10 mM, 24 h; for protection against loss of neuronal viability by neurotoxins: L-homocysteic acid 1 mM, BSO 0.15 mM, BSO + arachidonic acid 0.05 mM, α-tocotrienol (nM) 5 min before
# Procedure: Referring to FIG. 1, primary rat immature cortical neurons (A-C) or HT4 (D) were either treated or not with α-tocotrienol (as indicated) for 5 min and challenged with either glutamate (10 mM; A); L-homocysteic acid (1 mM; B); or buthionine sulfoximine (0.15 mM; BSO) for 24 h. […] Cells were counted at 12, 24 and 36 h after glutamate challenge.
# First, we tested for the involvement of 12-LOX in the execution of glutamate-induced death in our model. We started by using the 12-LOX specific inhibitor baicalein or BL15. Referring to FIG. 3, HT4 neurons (A) were either treated or not with a-tocotrienol (250 nM) or […] (2.5 μM, 12-lipoxygenase inhibitor) for 5 min and then challenged with glutamate (10 mM). Cell viability was determined using propidium iodide (PI) exclusion flow cytometry assay. PI−=live; PI+=dead. Rat primary immature cortical neurons (B-D) were either treated or not with α-tocotrienol (100 nM) or BL15 (2.5 μM) for 5 min and challenged either with glutamate (10 mM; B); L-homocysteic acid (1 mM; C) or buthionine sulfoximine (0.15 mM; BSO; D) for 24 h. Arachidonic acid, 50 μM for 24h. BL15, Baicalein 5,6,7-trihydroxy-flavone.
# Cell culture. Mouse hippocampal HT4 cells, were grown in Dulbecco's Modified Eagle Medium supplemented with 10% fetal calf serum, penicillin (100 U/ml) and streptomycin (100 μg/ml) at 37° C. in a humidified atmosphere containing 95% air and 5% CO2. HT4 cells were provided by Dr. D. E. Koshland Jr. (University of California at Berkeley) (Sen et al., 2000). Primary cortical neurons. Cells were isolated from the cerebral cortex of rat feti (Sprague Dawley; day 17 of gestation) or mouse feti (C57BL/6 mice, day 14 of gestation) as described (Murphy et al., 1990). For 12-LOX knockout studies, neurons were isolated from the feti of B6.129S2-Alox15^tm1Fun (Jackson Laboratory, […].). After isolation from the brain, cells were counted and seeded in culture plates at a density of 2-3×10^6 cells per 35 mm plate (Murphy et al., 1990). Cells were grown in Minimal Essential Medium (MEM) supplemented with 10% heat-inactivated fetal bovine serum, 40 μM cystine and antibiotics (100 μg/ml streptomycin, 100 units/ml penicillin, 0.25 μg/ml amphotericin). Cultures were maintained at 37° C. in 5% CO2 and 95% air in a humidified incubator. All experiments were carried out 24 h after plating.
# Treatment with neurotoxic agents. Immediately before experiments, culture media was replaced with fresh medium supplemented with serum and antibiotics. Glutamate (10 mM) was added to the media as aqueous solution (Han et al., 1997a; Sen et al., 2000; Tirosh et al., 2000). […] Other agents used to induce death in neuronal cells have been described in the pertinent figure legends.
# Vitamin E treatment. Stock solutions (10^3X of working concentration) of α-tocotrienol was prepared in ethanol. […]
# Determination of cell viability. Viability of HT4 cells was determined using propidium iodide exclusion assay using the flow cytometer as described by us previously (Sen et al., 2000; Tirosh et al., 2000). Because primary neuronal cultures tend to aggregate during flow cytometry, the viability of these cells was assessed by measuring lactate dehydrogenase (LDH) leakage (Han et al., 1997a) from cells to media 24 h following glutamate treatment using in vitro toxicology assay kit from Sigma Chemical Co. (St. Louis, Mo., USA). […]
# [2] = system: 12-lipoxygenase activity in HT4 neurons; test: 12(S)-HETE, product of 12-lipoxygenase activity, in glutamate-treated HT4 neurons (HPLC); type: cell-based, mouse; conditions: HT4, glutamate 12 h
# Procedure: Neurons isolated from 12-LOX deficient mice are resistant to glutamate-induced death (FIG. 4). This striking finding reinforced our interest to test α-tocotrienol as an inhibitor of glutamate-inducible 12-LOX activity in neuronal cells. Referring to FIG. 5, Products of 12-lipoxygenase activity in glutamate-treated neurons were evaluated using a HPLC-based analytical approach. […] ND, not detectable. It was observed that the by-product of 12-LOX activity, 12(S)-HETE, was not detected in HT4 cells under basal culture conditions (FIG. 5). […] However, such increase was prevented in α-tocotrienol treated cells (FIG. 5). This line of observation led to the question whether over-expression of 12-LOX in HT4 cells would sensitize them to glutamate-induced cytotoxicity and whether α-tocotrienol could counter such toxicity.
# 12-HETE detection. 12-Hydroxy-eicosatetraenoic acid (HETE) from HT4 cells was detected using a HPLC-UV based method (Eberhard et al., 2000). Immunofluorescence microscopy. For immunofluorescence microscopy, primary cultures of rat cortical neurons were plated on 35 mm plates pre-coated with poly-L-lysine. After 24 h, cell were treated with α-tocotrienol or BL15 for 5 minutes and then challenged with glutamate or exposed to glutamate. […]
# HT4 neurons = conditions: nM concentrations; Sen et al., 2000; cited from earlier work
smiles,measurement,setting,value
CC(C)=CCC/C(C)=C/CC/C(C)=C/CC[C@]1(C)CCc2c(C)c(O)c(C)c(C)c2O1 [α-tocotrienol],protection against glutamate-induced death of primary neurons,[1]; α-tocotrienol 100 nM or BL15 2.5 μM 5 min before,protected neurons against glutamate challenge
same,protection against loss of neuronal viability by neurotoxins,[1],protects
same,protection against loss of neuronal viability by neurotoxins,[1]; listed as α-Tocotrienol,total protection
same,glutamate-induced increase of cellular 12(S)-HETE content,[2],prevented
same,protection of HT4 neurons from glutamate-induced death (previously reported),HT4 neurons,protects
